The values that follow come from US8906852B2 (MethylGene Inc., priority 2010, dated 2014).

Bounds are passed on as bounds.

In general, IC50 refers to the concentration needed to halve the response being measured. Low values mean inhibition by little substance, high ones a need for much substance.

T1 sequence (P35968 806-1356): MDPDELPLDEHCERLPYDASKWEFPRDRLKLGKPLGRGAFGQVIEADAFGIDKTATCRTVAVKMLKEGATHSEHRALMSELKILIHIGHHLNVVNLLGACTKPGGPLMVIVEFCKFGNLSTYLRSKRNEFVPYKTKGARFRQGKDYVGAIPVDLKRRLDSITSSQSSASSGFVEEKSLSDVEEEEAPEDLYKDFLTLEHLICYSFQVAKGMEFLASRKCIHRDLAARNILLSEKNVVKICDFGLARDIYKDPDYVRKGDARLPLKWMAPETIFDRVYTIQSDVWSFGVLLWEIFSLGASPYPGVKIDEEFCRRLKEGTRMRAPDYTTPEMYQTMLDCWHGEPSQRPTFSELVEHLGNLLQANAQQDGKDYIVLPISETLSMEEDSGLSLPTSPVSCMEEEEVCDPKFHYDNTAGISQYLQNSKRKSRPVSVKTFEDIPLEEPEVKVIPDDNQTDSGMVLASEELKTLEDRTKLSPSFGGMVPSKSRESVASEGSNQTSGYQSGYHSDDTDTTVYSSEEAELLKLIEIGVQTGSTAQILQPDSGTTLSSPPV

The test has as its target T1, VEGFR/KDR (Homo sapiens, UniProt P35968).
T1 construct: made in house; host or cells: Sf9 cells (Spodoptera frugiperda), baculovirus
Nature of the test: VEGFR/KDR kinase inhibition, DELFIA assay. Format: biochemical. As to conditions: ATP 0.6 uM (2x Km), enzyme 5 nM. An outline of the steps:
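Enzyme (5 nM) pre-incubated 4 min on ice with inhibitor and Mg-ATP (0.6 uM, 2× Km), then reacted 10-30 min at 30° C on immobilized poly(Glu4,Tyr). EDTA-quenched phosphotyrosine detected with Europium-labeled antibody by time-resolved fluorescence; IC50 from concentration series.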
In turn, `O=C(Nc1ccc(Oc2ccnc3cc(-c4ccc(CNc5cc[nH]n5)cn4)sc23)c(F)c1)NC1CC1` [Compound 332, 1-(4-(2-(5-((1H-Pyrazol-3-ylamino)methyl)pyridin-2-yl)thieno[3,2-b]pyridin-7-yloxy)-3-fluorophenyl)-3-cyclopropylurea] registered an IC50 below 50 nM.

Turning to `COCCOCCOCCNC(=O)N1CCN(Cc2ccc(-c3cc4nccc(Oc5ccc(NC(=O)NC6CC6)cc5F)c4s3)nc2)CC1` [Compound 596, 4-((6-(7-(4-(3-Cyclopropylureido)-2-fluorophenoxy)thieno[3,2-b]pyridin-2-yl)pyridin-3-yl)methyl)-N-(2-(2-(2-methoxyethoxy)ethoxy)ethyl)piperazine-1-carboxamide], the IC50 is below 50 nM.

On to `CNC1CCN(Cc2ccc(-c3cc4nccc(Oc5ccc(NC(=O)NC6CC6)cc5F)c4s3)nc2)CC1` [Compound 401], for which the concentration for half-maximal inhibition (IC50) was below 50 nM.

With `O=C(Nc1ccc(Oc2ccnc3cc(-c4ccc(COC5CNC5)cn4)sc23)c(F)c1)NC1CC1` [Compound 405, 1-(4-(2-(5-((Azetidin-3-yloxy)methyl)pyridin-2-yl)thieno[3,2-b]pyridin-7-yloxy)-3-fluorophenyl)-3-cyclopropylurea], the IC50 was below 50 nM.

As for `O=C(Cn1cc(-c2cc3nccc(Oc4ccc(NC(=O)NC5CC5)cc4F)c3s2)nn1)NCc1cccnc1` [Compound 381], the IC50 is below 50 nM.

As to `Cc1cc(NCc2ccc(-c3cc4nccc(Oc5ccc(NC(=O)NC6CC6)cc5F)c4s3)nc2)nn1C` [Compound 335, 1-cyclopropyl-3-(4-(2-(5-((1,5-dimethyl-1H-pyrazol-3-ylamino)methyl)pyridin-2-yl)thieno[3,2-b]pyridin-7-yloxy)-3-fluorophenyl)urea], the concentration for half-maximal inhibition (IC50) was below 50 nM.

As for `CS(=O)(=O)N1CC=C(c2cc3nccc(Oc4ccc(NC(=O)NC5CC5)cc4F)c3s2)CC1` [Compound 275, 1-cyclopropyl-3-(3-fluoro-4-(2-(1-(methylsulfonyl)-1,2,3,6-tetrahydropyridin-4-yl)thieno[3,2-b]pyridin-7-yloxy)phenyl)urea], the half-inhibitory concentration (IC50) is below 50 nM.

Take `CC(=O)OCC(=O)N1CCN(Cc2ccc(-c3cc4nccc(Oc5ccc(NC(=O)NC6CC6)cc5F)c4s3)nc2)C[C@@H]1C` [Compound 528, (S)-2-(4-((6-(7-(4-(3-cyclopropylureido)-2-fluorophenoxy)thieno[3,2-b]pyridin-2-yl)pyridin-3-yl)methyl)-2-methylpiperazin-1-yl)-2-oxoethyl acetate]: the 50% inhibitory concentration (IC50) is below 50 nM.

In turn, `CN(CCO)C(=O)NC1CCN(Cc2ccc(-c3cc4nccc(Oc5ccc(NC(=O)NC6CC6)cc5F)c4s3)nc2)CC1` [Compound 358, 1-Cyclopropyl-3-(3-fluoro-4-(2-(5-((4-((2-hydroxyethyl-methylamino)carbonylamino)piperidin-1-yl)methyl)pyridin-2-yl)thieno[3,2-b]pyridin-7-yloxy)phenyl)urea] displayed an IC50 below 50 nM.

Consider `COCCNCc1ccc(-c2cc3nccc(Oc4ccc(NC(CC(=O)N(C)c5ccccc5)C(F)(F)F)cc4F)c3s2)nc1` (centres unmarked) [Compound 21, 4,4,4-trifluoro-3-(3-fluoro-4-(2-(5-((2-methoxyethylamino)methyl)pyridin-2-yl)thieno[3,2-b]pyridin-7-yloxy)phenylamino)-N-methyl-N-phenylbutanamide], for which the concentration for half-maximal inhibition (IC50) was below 50 nM.

Consider `CC(C)(O)CN1CCN(Cc2ccc(-c3cc4nccc(Oc5ccc(NC(=O)NC6CC6)cc5F)c4s3)nc2)CC1` [Compound 570], for which the 50% inhibitory concentration (IC50) was below 50 nM.

Compound `CC(=O)OCC(=O)NC1CCN(Cc2ccc(-c3cc4nccc(Oc5ccc(NC(=O)NC6CC6)cc5F)c4s3)nc2)CC1` [Compound 345] returned an IC50 below 50 nM.

`CC(C)(CN1CCN(Cc2ccc(-c3cc4nccc(Oc5ccc(NC(=O)NC6CC6)cc5F)c4s3)nc2)CC1)C(=O)O` [Compound 575] had a 50% inhibitory concentration (IC50) below 50 nM.

Take `CCNC(=O)N(C)C1CCN(C(=O)c2ccc(-c3cc4nccc(Oc5ccc(NC(=O)NC6CC6)cc5F)c4s3)nc2)CC1` [Compound 406]: the IC50 was below 50 nM.

The compound `CN(C)CCn1cc(-c2cc3nccc(Oc4ccc(NC(=O)NC5CC5)cc4F)c3s2)nn1` [Compound 367] gave a half-maximal inhibitory concentration (IC50) of 50 to 100 nM.

On to `O=C(Nc1ccc(Oc2ccnc3cc(-c4ccc(CN5CC[C@H](O)C5=O)cn4)sc23)c(F)c1)NC1CC1` [Compound 110, (S)-1-cyclopropyl-3-(3-fluoro-4-(2-(5-((3-hydroxy-2-oxopyrrolidin-1-yl)methyl)pyridin-2-yl)thieno[3,2-b]pyridin-7-yloxy)phenyl)urea], for which the IC50 was below 50 nM.

Consider `COCCOCCOCCOCCN(Cc1ccc(-c2cc3nccc(Oc4ccc(NC(=O)NC5CC5)c(F)c4F)c3s2)nc1)C(=O)CO` [Compound 259, N-((6-(7-(4-(3-cyclopropylureido)-2,3-difluorophenoxy)thieno-[3,2-b]pyridin-2-yl)pyridin-3-yl)methyl)-2-hydroxy-N-(2,5,8,11-tetraoxatridecan-13-yl)acetamide], for which the IC50 was below 50 nM.

As to `CCOC(=O)CN1CCN(Cc2ccc(-c3cc4nccc(Oc5ccc(NC(=O)NC6CC6)cc5F)c4s3)nc2)CC1` [Compound 60, ethyl 2-(4-((6-(7-(4-(3-cyclopropylureido)-2-fluorophenoxy)-thieno[3,2-b]pyridin-2-yl)pyridin-3-yl)methyl)piperazin-1-yl)acetate], the IC50 was below 50 nM.

For `O=C(Nc1ccc(Oc2ccnc3cc(-c4ccc(CN5CCOCCOCCOCC5)cn4)sc23)c(F)c1)NC1CC1` [Compound 532], the half-maximal inhibitory concentration (IC50) was below 50 nM.

As for `CC(=O)NC1CCN(Cc2ccc(-c3cc4nccc(Oc5ccc(NC(=O)NC6CC6)cc5F)c4s3)nc2)CC1` [Compound 344], the concentration for half-maximal inhibition (IC50) is below 50 nM.

As for `CN(C)[C@H]1CCN(C(=O)Cn2cc(-c3cc4nccc(Oc5ccc(NC(=O)NC6CC6)cc5F)c4s3)nn2)C1` [Compound 376], the concentration for half-maximal inhibition (IC50) was below 50 nM.

In turn, `CN(C(=O)NCC(=O)O)C1CCN(Cc2ccc(-c3cc4nccc(Oc5ccc(NC(=O)NC6CC6)cc5F)c4s3)nc2)CC1` [Compound 427] yielded an IC50 below 50 nM.

`CC(C)NC(=O)Nc1ccc(Oc2ccnc3cc(-c4ccc(CN5CCCOC5=O)cn4)sc23)c(F)c1` [Compound 201, 1-(3-fluoro-4-(2-(5-((2-oxo-1,3-oxazinan-3-yl)methyl)pyridin-2-yl)thieno[3,2-b]pyridin-7-yloxy)phenyl)-3-isopropylurea] registered an IC50 below 50 nM.

In turn, `CC(O)CN1CCN(Cc2ccc(-c3cc4nccc(Oc5ccc(NC(=O)NC6CC6)cc5F)c4s3)nc2)CC1` (centres unmarked) [Compound 562] gave an IC50 below 50 nM.

For `O=C(Nc1ccc(Oc2ccnc3cc(-c4ccc(CN5CCN(CCc6nnn[nH]6)CC5)cn4)sc23)c(F)c1)NC1CC1` [Compound 512, 1-(4-(2-(5-((4-(2-(1H-tetrazol-5-yl)ethyl)piperazin-1-yl)methyl)pyridin-2-yl)thieno[3,2-b]pyridin-7-yloxy)-3-fluorophenyl)-3-cyclopropylurea], the IC50 was below 50 nM.

As for `O=C(Nc1ccc(Oc2ccnc3cc(-c4ccc(CNc5ccc(OCCN6CCOCC6)cc5)cn4)sc23)c(F)c1)NC1CC1` [Compound 331, 1-Cyclopropyl-3-(3-fluoro-4-(2-(5-((4-(2-morpholinoethoxy)phenylamino)methyl)pyridin-2-yl)thieno[3,2-b]pyridin-7-yloxy)phenyl)urea], the concentration for half-maximal inhibition (IC50) is below 50 nM.
